Measurements reported in patent US7479493B2, “Substituted benzyl amine compounds” (Janssen Pharmaceutica N.V., priority 2006, dated 2009).

Key:
Rat SERT = Rat SERT (Rattus norvegicus, UniProt P31652); assay: biochemical
Protocol: The supernatant was removed and re-centrifuged at 15,000 rpm for 30 min. […] Membranes were incubated with 0.6 nM [^3H]-Citalopram plus/minus test compounds for 60 min at 25° C. and harvested by rapid filtration over GF/C glass fiber filters (pretreated with 0.3% polyethylenimine) followed by four washes with ice-cold buffer. Nonspecific binding was defined in the presence of 100 μM fluoxetine.

human H3 receptor = human H3 receptor (Homo sapiens, UniProt Q9Y5N1); assay: Cyclic AMP Accumulation (reporter gene, SK-N-MC cells)
Protocol: Sublines of SK-N-MC cells were created that expressed a reporter construct and the human H3 receptor. The reporter gene (β-galactosidase) is under the control of multiple cyclic AMP responsive elements. In 96-well plates, histamine was added directly to the cell media followed 5 min later by an addition of forskolin (5 μM final concentration). When appropriate, antagonists were added 10 min prior to agonist addition. After a 6-h incubation at 37° C., the media was aspirated and the cells washed with 200 μL of phosphate-buffered saline followed by a second aspiration. […] Color was developed using 25 μL of 1 mg/mL substrate solution (chlorophenolred β-D galactopyranoside; Roche Molecular Biochemicals, Indianapolis, Ind.).

cloned human H3 receptor = cloned human H3 receptor (Homo sapiens, UniProt Q9Y5N1); assay: H3 Receptor Binding; details: cloned human H3 receptor stably expressed in SK-N-MC cells
cloned human H3 receptor, sequence (Q9Y5N1 whole entry): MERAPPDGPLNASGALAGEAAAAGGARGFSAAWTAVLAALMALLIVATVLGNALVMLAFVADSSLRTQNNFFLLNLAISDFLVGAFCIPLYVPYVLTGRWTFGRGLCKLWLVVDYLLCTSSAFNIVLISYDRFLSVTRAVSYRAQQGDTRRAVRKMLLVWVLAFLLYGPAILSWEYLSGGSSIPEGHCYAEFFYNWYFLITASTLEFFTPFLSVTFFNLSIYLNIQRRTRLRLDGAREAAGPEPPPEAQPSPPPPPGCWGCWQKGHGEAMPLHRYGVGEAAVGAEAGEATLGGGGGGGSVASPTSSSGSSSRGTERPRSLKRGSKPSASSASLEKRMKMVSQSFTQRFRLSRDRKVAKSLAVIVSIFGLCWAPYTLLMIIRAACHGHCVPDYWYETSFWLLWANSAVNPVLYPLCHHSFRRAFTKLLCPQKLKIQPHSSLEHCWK

human SERT = molecular target: T1, human SERT (Homo sapiens, UniProt P31645); assay: Human SERT (3H-citalopram binding, HEK293 membranes); details: HEK293 membranes expressing the human SERT, rt 1 h
T1 construct: expressed in transfected cells; host or cells: HEK293 membranes
T1 sequence (P31645 whole entry): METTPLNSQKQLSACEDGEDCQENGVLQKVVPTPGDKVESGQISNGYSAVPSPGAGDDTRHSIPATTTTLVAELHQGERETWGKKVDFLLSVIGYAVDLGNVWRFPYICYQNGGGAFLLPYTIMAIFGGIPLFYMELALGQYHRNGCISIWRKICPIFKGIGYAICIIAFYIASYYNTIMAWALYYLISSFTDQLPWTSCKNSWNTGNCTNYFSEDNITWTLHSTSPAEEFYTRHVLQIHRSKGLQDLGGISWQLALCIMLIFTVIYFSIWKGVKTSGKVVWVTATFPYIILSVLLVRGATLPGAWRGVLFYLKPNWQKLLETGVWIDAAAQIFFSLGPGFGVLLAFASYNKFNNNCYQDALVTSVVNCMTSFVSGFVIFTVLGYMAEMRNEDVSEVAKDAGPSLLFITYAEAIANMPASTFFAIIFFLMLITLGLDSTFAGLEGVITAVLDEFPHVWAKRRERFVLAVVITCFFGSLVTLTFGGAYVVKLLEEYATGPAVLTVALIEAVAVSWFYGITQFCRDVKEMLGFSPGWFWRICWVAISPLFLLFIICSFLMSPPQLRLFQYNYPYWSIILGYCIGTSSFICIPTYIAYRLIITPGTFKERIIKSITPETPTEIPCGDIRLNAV
Protocol: Homogenized HEK293 (Human Embryonic Kidney) membranes expressing the human SERT were incubated with ^3H-citalopram (SERT) at rt for 1 h in 50 mM Tris, 120 mM NaCl, 5 mM KCl (pH 7.4). Nonspecific binding was determined in the presence of 10 μM fluoxetine for the SERT. The membranes were washed and the radioactivity was counted as above.

Rat SERT, sequence (P31652 whole entry): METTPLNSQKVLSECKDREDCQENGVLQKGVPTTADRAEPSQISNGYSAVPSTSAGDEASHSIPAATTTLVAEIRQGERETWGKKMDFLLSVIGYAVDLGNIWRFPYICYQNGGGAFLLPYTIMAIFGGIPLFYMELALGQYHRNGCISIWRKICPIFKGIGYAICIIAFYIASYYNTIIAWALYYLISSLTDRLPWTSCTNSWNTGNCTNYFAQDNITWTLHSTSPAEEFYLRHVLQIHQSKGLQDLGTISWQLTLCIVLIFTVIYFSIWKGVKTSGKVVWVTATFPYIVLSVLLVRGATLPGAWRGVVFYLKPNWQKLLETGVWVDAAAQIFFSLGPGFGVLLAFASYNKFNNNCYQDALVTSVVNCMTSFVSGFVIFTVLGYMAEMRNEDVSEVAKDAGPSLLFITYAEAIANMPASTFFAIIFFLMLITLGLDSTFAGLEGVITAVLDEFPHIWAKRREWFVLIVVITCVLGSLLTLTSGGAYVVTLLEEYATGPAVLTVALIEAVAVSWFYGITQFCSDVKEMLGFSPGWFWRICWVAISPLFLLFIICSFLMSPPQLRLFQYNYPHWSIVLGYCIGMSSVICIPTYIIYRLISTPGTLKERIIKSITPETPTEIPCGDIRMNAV
human H3 receptor, sequence (Q9Y5N1 whole entry): as the sequence (Q9Y5N1 whole entry) above

SMILES	Ki (Rat SERT) [nM]	Kb (human H3 receptor) [nM]	Ki (cloned human H3 receptor) [nM]	Ki (human SERT) [nM]
CNCc1cc(N2CCN(C(C)C)CCC2=O)ccc1Oc1ccc(Cl)c(Cl)c1 [Example 73, 4-[4-(3,4-Dichloro-phenoxy)-3-methylaminomethyl-phenyl]-1-isopropyl-[1,4]diazepan-5-one]	12	4.47	7.7	16
CNCc1ccc(C(=O)N2CCN(C(C)C)CC2)cc1Oc1ccc(Cl)cc1 [Example 36, [3-(4-Chloro-phenoxy)-4-methylaminomethyl-phenyl]-(4-isopropyl-piperazin-1-yl)-methanone]	28	6.31	4	–
CNCc1cc(C(=O)N2CCN(C(C)C)CC2)ccc1Oc1cccnc1 [Example 9, (4-Isopropyl-piperazin-1-yl)-[3-methylaminomethyl-4-(pyridin-3-yloxy)-phenyl]-methanone]	160	–	1	420
